The text below walks through data of US20070264355A1, “BINARY COMPOSITIONS AND METHODS FOR STERILIZATION” (Binary, LLC, priority 2005, published 2007).

Common to all, as to format: cell-based
For test [1], the system named is Staphylococcus aureus (ATCC 6538). Nature of the test: Microbicidal activity against Staphylococcus aureus (suspension test, surviving CFU). Particulars: H2O2/H+ 0.35 mM 30 min; inoculum 2530000 CFU. Here is the method:
Bacterial suspensions, specifically Staphylococcus aureus (ATCC 6538) in this example, were prepared by the shake flask method to achieve late log to early stationary phase growth. Bacteria were grown 24 hours in trypticase soy broth (TSB) at 35° C. The cultures were centrifuged at 4,000 rpm for 10 minutes and the supernatants removed. The pellet was collected and washed twice with sterile 0.9% normal saline. The washed microorganisms were suspended and diluted with normal saline to a 3 McFarland standard, i.e., approximately 10^9 bacteria colony forming units (CFU) per ml. Actual colony counts are confirmed by serial dilutions (10^−1 to 10^−5 or 10^−6) plated on trypticase soy agar (TSA) and incubated overnight at 35° C. One hundred microliters of organisms from a stock of 10^7 CFU/ml were used to obtain an approximate final working target inoculum of 10^6 CFU. The microbicidal test is conducted in a vial containing 1.4 ml of final reaction mixture after neutralization.
(§1) Each solution was used alone for the individual controls. Organism suspensions were used to achieve a final target concentration of 2-3×10^6 CFU per ml. For the binary system treatments, sodium hypochlorite solution and hydrogen peroxide solution, non-acidified or acidified, were sequentially added to the microorganisms. Acidified hydrogen peroxide solution was obtained by the addition of 1.0% v/v of 0.001 N hydrochloride solution. After each addition, the resulting mixture was allowed to remain in contact with the organisms for a set amount of time at room temperature (about 22° C.), as listed in the Tables 1 and 2. At the end of the treatment time, the mixtures were neutralized with 200 to 500 microliters of thiosulfate solution (2.4%) to quench the activity of sodium hypochlorite and then treated with 100 to 200 microliters of a 1% catalase solution, containing a minimum of 100 units/ul, to quench the hydrogen peroxide activity. If needed, an appropriate volume of sterile saline was added to bring the final volume of reaction mixture to 1.4 ml after neutralization. Serial dilution plate counts were performed from the contents of each vial in sterile saline and inoculated onto TSA for quantitative culture. Plates were then incubated at 37° C. and counts taken at 24 hours.
After an additional 30 minutes, the binary system mixture was then neutralized using 2.4% thiosulfate followed by 1% catalase as described in the Methods Section.

In test [2] the test system is Bacillus subtilis (ATCC 19659) spores. Nature of the test: Microbicidal activity against Bacillus subtilis spores (suspension test, surviving CFU). Particulars: H2O2/H+ 35.25 mM 30 min; inoculum 1120000 CFU.
Source text: as §1
Suspensions of Bacillus subtilis (ATCC 19659) containing 100% spores, as confirmed by microscopy, were obtained by washing the spun-down cells with 50% ethanol to eliminate the vegetative form. Starting inoculum of approximately 1-3×10^6 CFU was used as in Example 1.
[…] The binary system was neutralized 30 minutes after addition of hydrogen peroxide using 2.4% thiosulfate and 1% catalase as described in Example 1.

The subject of the next test is Bacillus subtilis spores. Nature of the test: Microbicidal activity of commonly used antiseptics against Bacillus subtilis spores. Here is the method: (§2) The performance of commonly used antiseptics was tested against Bacillus subtilis and Staphylococcus aureus, following the general procedure of Example 1, to assess the improvement provided by the binary system over these compounds.
After 60 minutes of exposure to the organisms, the individual antiseptics, indicated in Table 15 and Table 16, were neutralized using the corresponding neutralizing solutions prepared as listed below in Materials. Chlorhexidine and IPA were neutralized with 500 microliters of a solution containing 3% Saponin, 3% Tween-80, 0.3% lecithin, and 0.1% histidine. Povidone Iodine was neutralized with 500 microliters of thiosulfate solution (2.4%).

The subject of another test is Staphylococcus aureus. The experiment in a line: Microbicidal activity of commonly used antiseptics against Staphylococcus aureus. The following applies: inoculum 1475000 CFU. As for the experimental part: as §2
[…] Chlorhexidine and IPA were neutralized with 500 microliters of a solution containing 3% Saponin, 3% Tween-80, 0.3% lecithin, and 0.1% histidine. Povidone Iodine was neutralized with 500 microliters of thiosulfate solution (2.4%).

The mark [3] stands for this setting: IPA 0.07% 60 min, inoculum 1865000 CFU.
Where [4] appears, read: IPA 0.70% 60 min, inoculum 1865000 CFU.
Where [5] appears, read: IPA 7% 60 min, inoculum 1865000 CFU.
The mark [6] stands for this setting: IPA 70% 60 min, inoculum 1865000 CFU.
[7] abbreviates: PVI 10.00% 60 min, inoculum 1120000 CFU.

Consider `OO` [H2O2/H+, hydrogen peroxide], for which, in test [1], the “Log 10 (CFU + 1) Survivors” value is given as 6.2, the “Log Reduction” value stood at 0.2 and the “Total Viability (CFU)” value was determined as 1708000 CFU. In test [2], the “Log 10 (CFU + 1) Survivors” value was 6.2, the “Log Reduction” value is given as −0.2 and the “Total Viability (CFU)” value amounted to 1624000 CFU.
Turning to `CC(C)O` [IPA, Isopropyl Alcohol], the “Log 10 (CFU + 1) Survivors” value was 6.4 in the test with Bacillus subtilis spores (setting [3]); 6.3 in the test with Bacillus subtilis spores (setting [4]); 6.4 in the test on Bacillus subtilis spores (setting [5]); 6.3 in the test with Bacillus subtilis spores (setting [6]); 6.3 in the test on Staphylococcus aureus (IPA 0.07% 15 min); 6.3 with Staphylococcus aureus (IPA 0.70% 15 min). Further, the “Log 10 (CFU + 1) Survivors” value is on record as 6.3 in the test on Staphylococcus aureus (IPA 7% 15 min) and 0.0 in the test with Staphylococcus aureus (IPA 70% 15 min). Besides, the “Log Reduction” value was −0.1 with Bacillus subtilis spores (setting [3]); −0.1 with Bacillus subtilis spores (setting [4]); −0.1 in the test on Bacillus subtilis spores (setting [5]); 0.0 with Bacillus subtilis spores (setting [6]); −0.1 in the test with Staphylococcus aureus (IPA 0.07% 15 min); −0.1 with Staphylococcus aureus (IPA 0.70% 15 min). The “Log Reduction” value is on record as −0.1 in the test with Staphylococcus aureus (IPA 7% 15 min) and 6.2 in the test with Staphylococcus aureus (IPA 70% 15 min). The “Total Viability (CFU)” value in the test on Bacillus subtilis spores (setting [3]) is 2422000 CFU; in the test on Bacillus subtilis spores (setting [4]), 2170000 CFU; with Bacillus subtilis spores (setting [5]), 2352000 CFU; with Bacillus subtilis spores (setting [6]), 2044000 CFU; in the test with Staphylococcus aureus (IPA 0.07% 15 min), 1932000 CFU; in the test on Staphylococcus aureus (IPA 0.70% 15 min), 1988000 CFU. Moreover, the “Total Viability (CFU)” value with Staphylococcus aureus (IPA 7% 15 min) is on record as 1834000 CFU; in the test on Staphylococcus aureus (IPA 70% 15 min) it was 0 CFU. In the test with Bacillus subtilis spores (any concentration tested, 60 min), the “activity against B. subtilis spores” value was “did not demonstrate activity”.
With Povidone Iodine [PVI], in the test with Bacillus subtilis spores (setting [7]), the “Log 10 (CFU + 1) Survivors” value came out at 5.3, the “Log Reduction” value was found to be 0.8 and the “Total Viability (CFU)” value is on record as 189000 CFU. Besides, in the test on Staphylococcus aureus (PVI 10.00% 15 min), the “Log 10 (CFU + 1) Survivors” value was determined as 0.0, the “Log Reduction” value is on record as 6.2 and the “Total Viability (CFU)” value was determined as 0 CFU.
